{
  "source": "paper PMC5384220",
  "about": "(Nature Communications, 2017)",
  "key": {"FLAG-KDM4A1-1,064": {"target": "T1, FLAG-KDM4A1-1,064 (Homo sapiens, UniProt O75164)", "T1 construct": "expressed in transfected cells; host or cells: U2OS", "T1 sequence (O75164 1-1064)": "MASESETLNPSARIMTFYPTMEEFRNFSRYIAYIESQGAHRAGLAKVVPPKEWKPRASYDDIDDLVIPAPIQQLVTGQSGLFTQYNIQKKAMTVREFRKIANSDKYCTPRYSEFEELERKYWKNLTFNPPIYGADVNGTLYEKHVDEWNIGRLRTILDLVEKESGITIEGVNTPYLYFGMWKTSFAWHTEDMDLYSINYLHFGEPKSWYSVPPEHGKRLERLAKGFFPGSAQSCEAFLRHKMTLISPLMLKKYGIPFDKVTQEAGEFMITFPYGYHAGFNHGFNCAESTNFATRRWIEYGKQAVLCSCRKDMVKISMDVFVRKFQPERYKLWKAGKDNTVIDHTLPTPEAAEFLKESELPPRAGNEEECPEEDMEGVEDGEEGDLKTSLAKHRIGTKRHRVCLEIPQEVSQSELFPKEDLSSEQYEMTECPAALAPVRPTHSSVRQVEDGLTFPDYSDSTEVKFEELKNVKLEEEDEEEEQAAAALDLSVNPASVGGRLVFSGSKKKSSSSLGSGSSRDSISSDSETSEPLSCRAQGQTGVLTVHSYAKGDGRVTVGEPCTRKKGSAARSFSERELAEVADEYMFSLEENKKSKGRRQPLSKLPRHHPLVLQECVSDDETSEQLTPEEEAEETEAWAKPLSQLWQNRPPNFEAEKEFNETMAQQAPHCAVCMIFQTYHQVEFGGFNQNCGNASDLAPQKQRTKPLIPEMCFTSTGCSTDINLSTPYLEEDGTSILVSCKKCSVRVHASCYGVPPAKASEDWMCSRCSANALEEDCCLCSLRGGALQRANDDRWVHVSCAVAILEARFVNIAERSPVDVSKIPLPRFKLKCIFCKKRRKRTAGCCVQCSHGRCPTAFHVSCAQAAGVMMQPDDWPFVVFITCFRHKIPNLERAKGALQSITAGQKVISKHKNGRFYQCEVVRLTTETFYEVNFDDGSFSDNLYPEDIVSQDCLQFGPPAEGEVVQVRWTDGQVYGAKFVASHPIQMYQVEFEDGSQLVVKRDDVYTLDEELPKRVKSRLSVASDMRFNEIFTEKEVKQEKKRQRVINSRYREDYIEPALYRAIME", "experiment": "CETSA, FLAG-KDM4A in U2OS cells", "type": "cell-based", "conditions": "0.5 μM, 20 h dosing, DMSO 47 °C", "protocol": "Control cells were dosed only with DMSO."}, "FLAG-KDM4E": {"target": "T2, FLAG-KDM4E (Homo sapiens, UniProt B2RXH2)", "T2 construct": "expressed in transfected cells; host or cells: U2OS", "T2 sequence (B2RXH2 1-506)": "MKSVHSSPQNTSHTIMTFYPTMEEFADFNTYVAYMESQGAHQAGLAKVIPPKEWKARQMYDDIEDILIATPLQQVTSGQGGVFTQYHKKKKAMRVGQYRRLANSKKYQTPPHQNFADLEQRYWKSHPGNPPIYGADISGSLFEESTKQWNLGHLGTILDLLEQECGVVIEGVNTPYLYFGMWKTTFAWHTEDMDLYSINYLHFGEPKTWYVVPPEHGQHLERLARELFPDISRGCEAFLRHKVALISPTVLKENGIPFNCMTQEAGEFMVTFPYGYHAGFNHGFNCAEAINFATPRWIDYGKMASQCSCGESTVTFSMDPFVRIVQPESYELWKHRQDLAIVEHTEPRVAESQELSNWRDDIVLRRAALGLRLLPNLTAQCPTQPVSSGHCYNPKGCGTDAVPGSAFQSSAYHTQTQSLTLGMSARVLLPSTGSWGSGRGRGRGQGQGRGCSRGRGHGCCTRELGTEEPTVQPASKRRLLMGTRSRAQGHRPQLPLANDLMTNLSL", "experiment": "CETSA, FLAG-KDM4E in U2OS cells", "type": "cell-based", "conditions": "0.5 µM", "description": "For CETSA melting curve experiments, 80% confluent U2OS cells in a 75 cm^2 flask were transfected with a plasmid encoding full-length Flag-tagged KDM4A1–1,064 (ref. [15]) or KDM4E1–506 (ref. [20]) using Lipofectamine 2000 (Thermo Scientific) and incubated for 4 h. The cells were washed with PBS buffer and media replaced with fresh DMEM with 10% FBS, supplemented with cyclic peptides in DMSO (0.1% DMSO final). Cell dosing was carried out for 20 h at 37 °C. Control cells were dosed only with DMSO. The cells were trypsinized and washed thrice with PBS, by centrifugation (300 g, 3 min, 4 °C). Cells were re-suspended in PBS supplemented with Complete Protease inhibitor cocktail (Sigma) and divided into 8–10 aliquots (100 μl) containing equal cell numbers in PCR tubes. For ITDRF CETSA experiments, approximately 6 × 10^6 cells were seeded evenly into nine 25 cm^2 flask and adhered before transfection. After 4 h of incubation, the cells were washed with PBS buffer and the media replaced with fresh DMEM with 10% FBS supplemented with cyclic peptides at a final concentration between 0 and 4,000 nM (0.1% DMSO final). Cells were trypsinized and washed thrice with PBS using centrifugation (300 g, 3 min, 4 °C). Cells were re-suspended in PBS supplemented with protease inhibitor cocktail (Sigma), aliquots (100 μl) containing equal cell numbers in PCR tubes were prepared. […] For ITDRF, tubes were incubated at approximately the Tm of the proteins of interest as determined by CETSA melting curve experiments, for example, 55 °C (Tm for actin) for 3 min, followed by room temperature for 3 min. […]\nThe samples (supernatant) were run on SDS–PAGE (NuPage Novex Bis-Tris 4–12% polyacrylamide gels with NuPAGE MES SDS running buffer (Thermo Scientific)) and transferred onto nitrocellulose membranes using either the iBlot blotting system. FLAG-KDM4A levels were determined by immunoblotting using a monoclonal mouse anti-FLAG primary antibody (F1804, Sigma), at a dilution of 1: 1,000 in PBS-T buffer containing Seablock Reagent Salmon Plasma (2% v/v, Calbiochem). […]"}, "actin": {"test_system": "actin", "conditions": "U2OS cells, 0.5 μM; same for treated and untreated cells", "description": "For CETSA melting curve experiments, 80% confluent U2OS cells in a 75 cm^2 flask were transfected with a plasmid encoding full-length Flag-tagged KDM4A1–1,064 (ref. [15]) or KDM4E1–506 (ref. [20]) using Lipofectamine 2000 (Thermo Scientific) and incubated for 4 h. The cells were washed with PBS buffer and media replaced with fresh DMEM with 10% FBS, supplemented with cyclic peptides in DMSO (0.1% DMSO final). Cell dosing was carried out for 20 h at 37 °C. Control cells were dosed only with DMSO. The cells were trypsinized and washed thrice with PBS, by centrifugation (300 g, 3 min, 4 °C). Cells were re-suspended in PBS supplemented with Complete Protease inhibitor cocktail (Sigma) and divided into 8–10 aliquots (100 μl) containing equal cell numbers in PCR tubes. […]\nThe samples (supernatant) were run on SDS–PAGE (NuPage Novex Bis-Tris 4–12% polyacrylamide gels with NuPAGE MES SDS running buffer (Thermo Scientific)) and transferred onto nitrocellulose membranes using either the iBlot blotting system. FLAG-KDM4A levels were determined by immunoblotting using a monoclonal mouse anti-FLAG primary antibody (F1804, Sigma), at a dilution of 1: 1,000 in PBS-T buffer containing Seablock Reagent Salmon Plasma (2% v/v, Calbiochem). […] Western blotting band intensities were quantified using Image Studio Ver. […]"}},
  "data": [
    {"sequence": "DYVYNTRSGWRWYZC [T13Z]", "values": [
      {"measurement": "CETSA melting temperature (Tm) of FLAG-KDM4A", "setting": "FLAG-KDM4A1-1,064", "result": 59, "unit": "°C"},
      {"measurement": "CETSA stabilization / Tm shift of FLAG-KDM4E", "setting": "FLAG-KDM4E", "result": "No significant changes in the Tm shift"},
      {"measurement": "CETSA actin Tm", "setting": "actin", "result": 55, "unit": "°C"}
    ]}
  ]
}
